From US10702498B2 (priority 2015, dated 2020)
Read-outs that look alike come from different tables or passages of the source.

Key:
humanDOR = humanDOR (Homo sapiens (Human), UniProt P41143); assay: Receptor binding, [3H]diprenorphine
MOR = MOR (Homo sapiens (Human), UniProt P35372); assay: Receptor binding, [3H]diprenorphine
hKOR = hKOR (Homo sapiens (Human), UniProt P41145); assay: Receptor binding, [3H]diprenorphine
μOR [1] = molecular target: T1, μOR (Homo sapiens (Human), UniProt P35372); assay: cell-based; format: cell-based
μOR [2] = molecular target: T1, μOR; assay: BRET-based cAMP accumulation assay (Gi/o signaling, SAR of PZM21-29); format: cell-based; conditions: for loss of potency in Gi/o signaling assay: compared to parent reference compound (PZM22)
[3] = molecular target: human μOR β-arrestin2 recruitment + GRK2 (Homo sapiens (Human), UniProt P35372); assay: β-Arrestin2 recruitment with GRK2 co-expression (BRET); format: cell-based; conditions: GRK2 co-expressed
[4] = molecular target: μOR β-arrestin2 recruitment (Homo sapiens (Human), UniProt P35372); assay: β-Arrestin2 recruitment without GRK2 co-expression (BRET); format: cell-based
[5] = read-out: binding affinity Ki [nM] hDOR

Chain of MOR (P35372 whole entry): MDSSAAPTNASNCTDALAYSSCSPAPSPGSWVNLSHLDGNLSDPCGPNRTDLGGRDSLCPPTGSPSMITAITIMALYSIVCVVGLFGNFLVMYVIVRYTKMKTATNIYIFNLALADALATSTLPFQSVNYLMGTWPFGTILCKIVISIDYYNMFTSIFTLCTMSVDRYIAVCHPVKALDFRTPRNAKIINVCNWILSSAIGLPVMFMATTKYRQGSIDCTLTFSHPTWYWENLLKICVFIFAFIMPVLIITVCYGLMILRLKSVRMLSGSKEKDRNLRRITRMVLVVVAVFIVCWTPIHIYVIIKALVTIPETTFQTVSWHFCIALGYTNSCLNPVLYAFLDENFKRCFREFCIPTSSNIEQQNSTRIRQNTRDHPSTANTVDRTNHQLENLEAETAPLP
Chain of humanDOR (P41143 whole entry): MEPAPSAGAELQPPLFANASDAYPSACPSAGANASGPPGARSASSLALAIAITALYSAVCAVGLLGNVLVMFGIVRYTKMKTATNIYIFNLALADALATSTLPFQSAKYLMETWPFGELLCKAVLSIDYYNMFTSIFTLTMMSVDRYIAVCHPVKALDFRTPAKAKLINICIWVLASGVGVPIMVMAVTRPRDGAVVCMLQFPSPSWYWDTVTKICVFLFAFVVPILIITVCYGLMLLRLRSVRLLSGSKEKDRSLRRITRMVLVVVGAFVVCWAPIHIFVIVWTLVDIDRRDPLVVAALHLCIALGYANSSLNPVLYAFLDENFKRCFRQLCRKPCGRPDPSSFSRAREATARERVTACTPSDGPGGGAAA
Chain of hKOR (P41145 whole entry): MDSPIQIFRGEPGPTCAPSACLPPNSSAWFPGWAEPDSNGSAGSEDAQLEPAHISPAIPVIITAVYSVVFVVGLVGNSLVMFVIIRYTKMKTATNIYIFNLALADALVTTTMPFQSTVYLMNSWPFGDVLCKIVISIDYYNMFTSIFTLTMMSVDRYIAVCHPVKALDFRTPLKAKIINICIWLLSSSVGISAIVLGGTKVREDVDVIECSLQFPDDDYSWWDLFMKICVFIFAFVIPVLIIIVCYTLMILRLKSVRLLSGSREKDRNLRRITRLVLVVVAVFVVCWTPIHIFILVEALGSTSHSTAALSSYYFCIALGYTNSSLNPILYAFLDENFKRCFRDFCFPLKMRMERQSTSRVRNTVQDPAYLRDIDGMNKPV

C=CCN(CC(Cc1ccccc1)N(C)C)C(=O)N[C@@H](C)Cc1ccsc1 (stereo partly shown) [DD 93A]
Ki (humanDOR; [5]): ~15000 nM

CN(CCO)[C@H](CNC(=O)NCCc1ccccc1)Cc1ccc(O)cc1 [DD186, (S)-1-(2-((2-hydroxyethyl)(methyl)amino)-3-(4-hydroxyphenyl)propyl)-3-phenethylurea]
Ki (humanDOR): 1800 nM
Ki (MOR): 970 nM
Ki (hKOR): 1300 nM

C[C@@H](Cc1ccsc1)NC(=O)NC[C@H](Cc1ccccc1)N(C)C [(S,S)-12, 1-[(S)-2-(Dimethylamino)-3-phenylpropyl]-3-[(S)-1-(thiophen-3-yl)propan-2-yl]urea]
Gi/o activation / μOR agonist activity (μOR [1]): most potent and efficacious Gi/o signaling agonist among the four isomers

CN(CCCl)[C@H](CNC(=O)NCCc1ccccc1)Cc1ccc(O)cc1 [DD185, (S)-1-(2-((2-chloroethyl)(methyl)amino)-3-(4-hydroxyphenyl)propyl)-3-phenethylurea]
Ki (humanDOR): 360 nM

CN(C=O)[C@H](CNC(=O)NCCc1ccccc1)Cc1ccc(O)cc1 [PZM28, (S)—N-(1-(4-Hydroxyphenyl)-3-(3-phenethylureido)propan-2-yl)-N-methylformamide]
loss of potency in Gi/o signaling assay (μOR [2]): 1000 fold

CN(C)[C@H](CNC(=O)NC(C)(C)Cc1ccccc1)Cc1ccc(O)cc1 [DD 33L, (S)-1-(2-(dimethylamino)-3-(4-hydroxyphenyl)propyl)-3-(2-methyl-1-phenylpropan-2-yl)urea]
Arrestin + GRK2 pEC50 [3]: 6.874
Gi/o pEC50 (μOR [1]): 7.008

CN(C)[C@H](CNC(=O)NCCc1cccc(F)c1)Cc1ccc(O)cc1 [DDLM-10, (S)-1-(2-(dimethylamino)-3-(4-hydroxyphenyl)propyl)-3-(3-fluorophenethyl)urea]
Ki (humanDOR): 250 nM
Ki (MOR; binding affinity Ki [nM] hMOR): 36 nM
Ki (hKOR; binding affinity Ki [nM] hKOR): 170 nM

CN(C)[C@H](CNC(=O)NCCCN1C(=O)C=CC1=O)Cc1ccc(O)cc1 [DD 138, (S)-1-(2-(dimethylamino)-3-(4-hydroxyphenyl)propyl)-3-(3-(2,5-dioxo-2,5-dihydro-1H-pyrrol-1-yl)propyl)urea]
Ki (MOR; binding affinity Ki [nM] hMOR): 580 nM

CC(Cc1csc2ccccc12)NC(=O)NC[C@H](Cc1ccc(O)cc1)N(C)C (mixture of isomers) [DD 63L-RS]
Ki (humanDOR): 44 ± 1.4 nM
Ki (humanDOR; [5]): 44 nM
Ki (MOR; binding affinity Ki [nM] hMOR): 14 nM
Ki (MOR; hMOR [3H]dyprenorphine Ki): 16 ± 1.4 nM
Ki (hKOR; binding affinity Ki [nM] hKOR): 19 nM
Ki (hKOR; hKOR [3H]dyprenorphine Ki): 14 ± 0.71 nM

C[C@H](Cc1ccsc1)NC(=O)NC[C@H](Cc1ccc(O)cc1)N(C)C [(S,R)-21, 1-[(S)-2-(Dimethylamino)-3-(4-hydroxyphenyl)propyl]-3-((R)-1-(thiophen-3-yl)propan-2-yl)urea]
Gi/o activation / μOR agonist activity (μOR [1]): more potent partial agonist of the μOR as compared to (S,S)-21

CN(CC1CC1)[C@H](CNC(=O)NCCc1ccccc1)Cc1ccc(O)cc1 [DD 184]
Gi/o pEC50 (μOR [1]): 6.253

CN(CC1CC1)[C@H](CNC(=O)NCCc1ccccc1)Cc1ccc(O)cc1 [PZM27, (S)-1-(2-((Cyclopropylmethyl)(methyl)amino)-3-(4-hydroxyphenyl)propyl)-3-phenethylurea×CF3COOH]
agonist efficacy / potency in Gi/o signaling assay (μOR [2]): decreased efficacy
loss of potency in Gi/o signaling assay (μOR [2]): 30 fold

CN(C)[C@H](CNC(=O)NCCc1ccccc1F)Cc1ccc(O)cc1 [DDLM-08, (S)-1-(2-(dimethylamino)-3-(4-hydroxyphenyl)propyl)-3-(2-fluorophenethyl)urea]
Ki (humanDOR): 53 nM
Ki (MOR; binding affinity Ki [nM] hMOR): 43 nM
Ki (hKOR; binding affinity Ki [nM] hKOR): 440 nM

CN(C)[C@H](CNC(=O)NCCc1ccccc1)Cc1ccc(O)cc1 [DD 90]
Arrestin pEC50 [4]: 7.272
Arrestin + GRK2 pEC50 [3]: 6.841
Gi/o pEC50 (μOR [1]): 8.371

COc1ccc(CCNC(=O)NC[C@H](Cc2ccc(O)cc2)N(C)C)cc1 [DD201, (S)-1-(2-(dimethylamino)-3-(4-hydroxyphenyl)propyl)-3-(4-methoxyphenethyl)urea]
Ki (humanDOR): 10000 nM
Ki (MOR): 330 nM
Ki (hKOR): 1500 nM

CN(CCc1ccccc1)C(=O)NC[C@H](Cc1ccc(O)cc1)N(C)C [DD 102]
Arrestin pEC50 [4]: 5.703
Arrestin + GRK2 pEC50 [3]: 5.824
Gi/o pEC50 (μOR [1]): 7.421

C[C@H](NC(=O)NC[C@H](Cc1ccc(O)cc1)N(C)C)c1ccccc1 [DD 53LS, 1-((S)-2-(dimethylamino)-3-(4-hydroxyphenyl)propyl)-3-((S)-1-phenylethyl)urea]
Arrestin pEC50 [4]: 7.168
Arrestin + GRK2 pEC50 [3]: 7.059
Gi/o pEC50 (μOR [1]): 8.512

COc1ccccc1CCNC(=O)NC[C@H](Cc1ccc(O)cc1)N(C)C [DD198, (S)-1-(2-(dimethylamino)-3-(4-hydroxyphenyl)propyl)-3-(2-methoxyphenethyl)urea]
Ki (humanDOR): 150 nM
Ki (MOR; binding affinity Ki [nM] hMOR): 22 nM
Ki (hKOR; binding affinity Ki [nM] hKOR): 140 nM

CN(C)[C@H](CNC(=O)NCCc1cn(Cc2ccccc2)nn1)Cc1ccc(O)cc1 [DD 154, (S)-1-(2-(1-benzyl-1H-1,2,3-triazol-4-yl)ethyl)-3-(2-(dimethylamino)-3-(4-hydroxyphenyl)propyl)urea]
Ki (humanDOR): 580 nM

C[C@@H](Cc1csc2ccccc12)NC(=O)NC[C@H](Cc1ccc(O)cc1)N(C)C [DD 63L-LB]
Arrestin pEC50 [4]: 6.401
Arrestin + GRK2 pEC50 [3]: 7.086
Gi/o pEC50 (μOR [1]): 8.244

C[C@H](Cc1ccsc1)NC(=O)NC[C@H](Cc1ccccc1)N(C)C (stereo in doubt) [BD 127LR]
Ki (humanDOR): 1800 ± 150 nM
Ki (humanDOR; [5]): 1800 nM
Ki (hKOR; binding affinity Ki [nM] hKOR): 1300 nM
Ki (hKOR; hKOR [3H]dyprenorphine Ki): 1300 ± 300 nM

CN(C)[C@H](CNC(=O)NC(C)(C)Cc1ccsc1)Cc1ccc(O)cc1 [DD 32L, (S)-1-(2-(dimethylamino)-3-(4-hydroxyphenyl)propyl)-3-(2-methyl-1-(thiophen-3-yl)propan-2-yl)urea]
Arrestin pEC50 [4]: 8.282
Arrestin + GRK2 pEC50 [3]: 7.306
Gi/o pEC50 (μOR [1]): 7.629

CN(C)[C@H](CNC(=O)NCCc1cn(CCOCCOCCN=[N+]=[N-])nn1)Cc1ccc(O)cc1 [DD 161, (S)-1-(2-(1-(2-(2-(2-azidoethoxy)ethoxy)ethyl)-1H-1,2,3-triazol-4-yl)ethyl)-3-(2-(dimethylamino)-3-(4-hydroxyphenyl)propyl)urea]
Ki (humanDOR): 3000 nM
Ki (hKOR): 1200 nM

C=CCN(CC(Cc1ccccc1)N(C)C)C(=O)N[C@H](C)Cc1ccsc1 (stereo partly shown) [DD 93B]
Ki (humanDOR; [5]): ~15000 nM

CN(C)[C@H](CNC(=S)NCCc1ccsc1)Cc1ccc(O)cc1 [DD 81, (S)-1-(2-(dimethylamino)-3-(4-hydroxyphenyl)propyl)-3-(2-(thiophen-3-yl)ethyl)thiourea]
Arrestin pEC50 [4]: 7.604
Arrestin + GRK2 pEC50 [3]: 7.173
Gi/o pEC50 (μOR [1]): 7.821

CN(C[C@H](Cc1ccc(O)cc1)N(C)C)C(=O)NCCc1ccccc1 [DD 108]
Arrestin pEC50 [4]: 5.327
Arrestin + GRK2 pEC50 [3]: 5.826
Gi/o pEC50 (μOR [1]): 7.455

C[C@@H](Cc1ccsc1)NC(=O)NC[C@H](Cc1cccc(O)c1)N(C)C [DD 47LS, 1-((S)-2-(dimethylamino)-3-(3-hydroxyphenyl)propyl)-3-((S)-1-(thiophen-3-yl)propan-2-yl)urea]
Arrestin pEC50 [4]: 6.447
Arrestin + GRK2 pEC50 [3]: 6.676
Gi/o pEC50 (μOR [1]): 7.77

CN(C)[C@H](CNC(=O)NCCc1ccc(F)cc1)Cc1ccc(O)cc1 [DDLM-15, (S)-1-(2-(dimethylamino)-3-(4-hydroxyphenyl)propyl)-3-(4-fluorophenethyl)urea]
Ki (humanDOR): 250 nM
Ki (MOR; binding affinity Ki [nM] hMOR): 27 nM
Ki (hKOR; binding affinity Ki [nM] hKOR): 190 nM

COc1cccc(CCNC(=O)NC[C@H](Cc2ccc(O)cc2)N(C)C)c1 [DD200, (S)-1-(2-(dimethylamino)-3-(4-hydroxyphenyl)propyl)-3-(3-methoxyphenethyl)urea]
Ki (humanDOR): 220 nM
Ki (MOR): 110 nM
Ki (hKOR): 1300 nM

C[C@@H](Cc1ccccc1)NC(=O)NC[C@H](Cc1ccc(O)cc1)N(C)C [DD 61L-B, 1-((S)-2-(dimethylamino)-3-(4-hydroxyphenyl)propyl)-3-((S)-1-phenylpropan-2-yl)urea]
Arrestin pEC50 [4]: 7.075
Arrestin + GRK2 pEC50 [3]: 6.556
Gi/o pEC50 (μOR [1]): 7.45

C[C@@H](Cc1ccsc1)NC(=O)NC[C@H](Cc1ccc(O)cc1)N(C)Cc1ccccc1 [DD187, 1-((S)-2-(benzyl(methyl)amino)-3-(4-hydroxyphenyl)propyl)-3-((S)-1-(thiophen-3-yl)propan-2-yl)urea]
Ki (humanDOR): 720 nM
Ki (MOR): 220 nM
Ki (hKOR): 210 nM

CN(C)[C@H](CNC(=O)NCCc1cn(CCOCCOCCOCCN=[N+]=[N-])nn1)Cc1ccc(O)cc1 [DD 165, (S)-1-(2-(1-(2-(2-(2-(2-azidoethoxy)ethoxy)ethoxy)ethyl)-1H-1,2,3-triazol-4-yl)ethyl)-3-(2-(dimethylamino)-3-(4-hydroxyphenyl)propyl)urea]
Ki (humanDOR): 3900 nM
Ki (hKOR; binding affinity Ki [nM] hKOR): 2900 nM

C[C@@H](Cc1ccsc1)NC(=O)NC[C@H](Cc1ccc(O)c(CO)c1)N(C)C [DD 131, 1-((S)-2-(dimethylamino)-3-(4-hydroxy-3-(hydroxymethyl)phenyl)propyl)-3-((S)-1-(thiophen-3-yl)propan-2-yl)urea]
Arrestin pEC50 [4]: 6.639
Arrestin + GRK2 pEC50 [3]: 6.671
Gi/o pEC50 (μOR [1]): 8.1

CN(C)[C@H](CNC(=O)NCCc1cn(CCOCCOCCOCCOCCOCCNC(=O)CCCC[C@@H]2SC[C@@H]3NC(=O)N[C@@H]32)nn1)Cc1ccc(O)cc1 [DD 170, N-(17-(4-(2-(3-((S)-2-(dimethylamino)-3-(4-hydroxyphenyl)propyl)ureido)ethyl)-1H-1,2,3-triazol-1-yl)-3,6,9,12,15-pentaoxaheptadecyl)-5-((3aS,4S,6aR)-2-oxohexahydro-1H-thieno[3,4-d]imidazol-4-yl)pentanamide]
Ki (MOR; read-out: binding affinity Ki [nM] hMOR): 13000 nM
